According to patent publication US6358885B1, “Substituted phenylheterocyclic herbicides” (Mississippi State University, priority 1992, dated 2002):

Columns and labels:
[1] = system: lambsquarters; experiment: Test C preemergence/postemergence greenhouse plant response rating 0 to 100; assay type: in vivo, Chenopodium album; conditions: Rate 31 g/ha
How it was run: (§1)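 Compounds in non-phytotoxic solvent went onto sandy loam before emergence (seeded one day earlier) or onto plants at the one-to-four leaf stage. Duck salad was treated via flood water (~2.5 cm, maintained) over silt loam.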

[2] = system: morningglory; experiment: as above; assay type: in vivo, Ipomoea hederacea; conditions: for Plant response rating, Morningglory: 125 g/ha, 0 to 100 scale
How it was run: as §1

[3] = system: rape; experiment: as above; assay type: in vivo, Brassica napus; conditions: for Plant response rating, Rape: 125 g/ha, 0 to 100 scale
How it was run: as §1

[4] = system: sorghum; experiment: as above; assay type: in vivo, Sorghum bicolor; conditions: for Plant response rating, Sorghum: 125 g/ha, 0 to 100 scale
How it was run: as §1

[5] = system: soybean; experiment: as above; assay type: in vivo, Glycine max; conditions: for Plant response rating, Soybean: 125 g/ha, 0 to 100 scale
How it was run: as §1

[6] = system: sugar beet; experiment: as above; assay type: in vivo, Beta vulgaris; conditions: for Plant response rating, Sugar beet: 125 g/ha, 0 to 100 scale
How it was run: as §1

[7] = system: velvetleaf; experiment: as above; assay type: in vivo, Abutilon theophrasti; conditions: for Plant response rating, Velvetleaf: 125 g/ha, 0 to 100 scale
How it was run: as §1

[8] = system: umbrella sedge; experiment: Test C flood test plant response rating 0 to 100; assay type: in vivo, Cyperus difformis
How it was run: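 Compounds in non-phytotoxic solvent applied preemergence to sandy loam one day after planting, postemergence at the 1–4 leaf stage, or to ~2.5 cm floodwater over silt loam.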

## COCOc1cc(-c2nn3c(c2Cl)CCCC3)c(F)cc1Cl [Compound 58]
[1]; POSTEMERGENCE
  Plant response rating (0 to 100), Lambsquarters: 100
[1]; PREEMERGENCE
  Plant response rating (0 to 100), Lambsquarters: 100
[2]; POSTEMERGENCE
  Plant response rating, Morningglory: 100
[2]; POSTEMERGENCE, Rate 2 g/ha
  Plant response rating (0 to 100), Morningglory: 50
[2]; PREEMERGENCE
  Plant response rating, Morningglory: 30
[2]; PREEMERGENCE, Rate 2 g/ha
  Plant response rating (0 to 100), Morningglory: 0
[2]; Rate 8 g/ha, POSTEMERGENCE
  Plant response rating (0 to 100), Morningglory: 70
[2]; Rate 8 g/ha, PREEMERGENCE
  Plant response rating (0 to 100), Morningglory: 0
[2]; Rate 31 g/ha, POSTEMERGENCE
  Plant response rating (0 to 100), Morningglory: 90
[2]; Rate 31 g/ha, PREEMERGENCE
  Plant response rating (0 to 100), Morningglory: 0
[3]; POSTEMERGENCE
  Plant response rating, Rape: 100
[3]; POSTEMERGENCE, Rate 2 g/ha
  Plant response rating (0 to 100), Rape: 30
[3]; PREEMERGENCE
  Plant response rating, Rape: 70
[3]; PREEMERGENCE, Rate 2 g/ha
  Plant response rating (0 to 100), Rape: 0
[3]; Rate 8 g/ha, POSTEMERGENCE
  Plant response rating (0 to 100), Rape: 50
[3]; Rate 8 g/ha, PREEMERGENCE
  Plant response rating (0 to 100), Rape: 0
[3]; Rate 31 g/ha, POSTEMERGENCE
  Plant response rating (0 to 100), Rape: 70
[3]; Rate 31 g/ha, PREEMERGENCE
  Plant response rating (0 to 100), Rape: 10
[4]; POSTEMERGENCE
  Plant response rating, Sorghum: 85
[4]; POSTEMERGENCE, Rate 2 g/ha
  Plant response rating (0 to 100), Sorghum: 30
[4]; PREEMERGENCE
  Plant response rating, Sorghum: 20
[4]; PREEMERGENCE, Rate 2 g/ha
  Plant response rating (0 to 100), Sorghum: 0
[4]; Rate 8 g/ha, POSTEMERGENCE
  Plant response rating (0 to 100), Sorghum: 50
[4]; Rate 8 g/ha, PREEMERGENCE
  Plant response rating (0 to 100), Sorghum: 0
[4]; Rate 31 g/ha, POSTEMERGENCE
  Plant response rating (0 to 100), Sorghum: 50
[4]; Rate 31 g/ha, PREEMERGENCE
  Plant response rating (0 to 100), Sorghum: 10
[5]; POSTEMERGENCE
  Plant response rating, Soybean: 85
[5]; POSTEMERGENCE, Rate 2 g/ha
  Plant response rating (0 to 100), Soybean: 50
[5]; PREEMERGENCE
  Plant response rating, Soybean: 0
[5]; PREEMERGENCE, Rate 2 g/ha
  Plant response rating (0 to 100), Soybean: 0
[5]; Rate 8 g/ha, POSTEMERGENCE
  Plant response rating (0 to 100), Soybean: 50
[5]; Rate 8 g/ha, PREEMERGENCE
  Plant response rating (0 to 100), Soybean: 0
[5]; Rate 31 g/ha, POSTEMERGENCE
  Plant response rating (0 to 100), Soybean: 70
[5]; Rate 31 g/ha, PREEMERGENCE
  Plant response rating (0 to 100), Soybean: 0
[6]; POSTEMERGENCE
  Plant response rating, Sugar beet: 100
[6]; POSTEMERGENCE, Rate 2 g/ha
  Plant response rating (0 to 100), Sugar beet: 100
[6]; PREEMERGENCE
  Plant response rating, Sugar beet: 100
[6]; PREEMERGENCE, Rate 2 g/ha
  Plant response rating (0 to 100), Sugar beet: 10
[6]; Rate 8 g/ha, POSTEMERGENCE
  Plant response rating (0 to 100), Sugar beet: 100
[6]; Rate 8 g/ha, PREEMERGENCE
  Plant response rating (0 to 100), Sugar beet: 85
[6]; Rate 31 g/ha, POSTEMERGENCE
  Plant response rating (0 to 100), Sugar beet: 100
[6]; Rate 31 g/ha, PREEMERGENCE
  Plant response rating (0 to 100), Sugar beet: 90
[7]; POSTEMERGENCE
  Plant response rating, Velvetleaf: 100
[7]; POSTEMERGENCE, Rate 2 g/ha
  Plant response rating (0 to 100), Velvetleaf: 40
[7]; PREEMERGENCE
  Plant response rating, Velvetleaf: 100
[7]; PREEMERGENCE, Rate 2 g/ha
  Plant response rating (0 to 100), Velvetleaf: 0
[7]; Rate 8 g/ha, POSTEMERGENCE
  Plant response rating (0 to 100), Velvetleaf: 75
[7]; Rate 8 g/ha, PREEMERGENCE
  Plant response rating (0 to 100), Velvetleaf: 40
[7]; Rate 31 g/ha, POSTEMERGENCE
  Plant response rating (0 to 100), Velvetleaf: 80
[7]; Rate 31 g/ha, PREEMERGENCE
  Plant response rating (0 to 100), Velvetleaf: 100
[8]; POSTEMERGENCE section, flood test, Rate 2 g/ha
  Plant response rating (0 to 100), Umbrella sedge: 25
[8]; Rate 8 g/ha, under POSTEMERGENCE head (flood test species)
  Plant response rating (0 to 100), Umbrella sedge: 30
[8]; Rate 31 g/ha, under POSTEMERGENCE head (flood test species)
  Plant response rating (0 to 100), Umbrella sedge: 70
[8]; flood test species listed under POSTEMERGENCE, 125 g/ha, 0 to 100 scale
  Plant response rating Umbrella sedge: 100
